Experimental data reported in PubChem BioAssay (NCI).
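Grown in 96-well plates, cells were treated for 48 hours with each compound at five concentrations. Insufficient inhibition: endpoint recorded as highest concentration tested. The concentration for full growth arrest is given as TGI.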

Legend:
Test in all cases: NCI anticancer screen, dose series, 48 h
A498 renal = test system: A498 renal
DU-145 prostate = test system: DU-145 prostate
OVCAR-4 ovarian = test system: OVCAR-4 ovarian
SNB-75 CNS = test system: SNB-75 CNS
K-562 leukemia = test system: K-562 leukemia
MOLT-4 leukemia = test system: MOLT-4 leukemia
ACHN renal = test system: ACHN renal
TK-10 renal = test system: TK-10 renal
M14 melanoma = test system: M14 melanoma
HCT-15 colon = test system: HCT-15 colon
SNB-19 CNS = test system: SNB-19 CNS
OVCAR-8 ovarian = test system: OVCAR-8 ovarian
SF-539 CNS = test system: SF-539 CNS
UACC-62 melanoma = test system: UACC-62 melanoma
MCF7 breast = test system: MCF7 breast
OVCAR-3 ovarian = test system: OVCAR-3 ovarian
KM12 colon = test system: KM12 colon
RPMI-8226 leukemia = test system: RPMI-8226 leukemia
NCI-H23 lung = test system: NCI-H23 lung
HT29 colon = test system: HT29 colon
OVCAR-5 ovarian = test system: OVCAR-5 ovarian
RXF 393 renal = test system: RXF 393 renal
SF-268 CNS = test system: SF-268 CNS
PC-3 prostate = test system: PC-3 prostate
MALME-3M melanoma = test system: MALME-3M melanoma
SK-MEL-2 melanoma = test system: SK-MEL-2 melanoma
MDA-MB-231 breast = test system: MDA-MB-231 breast
SF-295 CNS = test system: SF-295 CNS
HCC-2998 colon = test system: HCC-2998 colon
CAKI-1 renal = test system: CAKI-1 renal
MDA-MB-435 = test system: MDA-MB-435
EKVX NSCLC = test system: EKVX NSCLC
HS 578T breast = test system: HS 578T breast
SN12C renal = test system: SN12C renal
CCRF-CEM leukemia = test system: CCRF-CEM leukemia
T-47D breast = test system: T-47D breast
UACC-257 melanoma = test system: UACC-257 melanoma
SK-OV-3 ovarian = test system: SK-OV-3 ovarian
BT-549 breast = test system: BT-549 breast
NCI-H460 lung = test system: NCI-H460 lung
U251 CNS = test system: U251 CNS
IGROV1 ovarian = test system: IGROV1 ovarian
HL-60(TB) leukemia = test system: HL-60(TB) leukemia
HOP-92 NSCLC = test system: HOP-92 NSCLC
COLO 205 colon = test system: COLO 205 colon
NCI-H522 lung = test system: NCI-H522 lung
MDA-N = test system: MDA-N
SK-MEL-5 melanoma = test system: SK-MEL-5 melanoma
HOP-62 NSCLC = test system: HOP-62 NSCLC
NCI/ADR-RES ovarian = test system: NCI/ADR-RES ovarian
UO-31 renal = test system: UO-31 renal
NCI-H226 lung = test system: NCI-H226 lung
SK-MEL-28 melanoma = test system: SK-MEL-28 melanoma
HCT-116 colon = test system: HCT-116 colon
LOX IMVI melanoma = test system: LOX IMVI melanoma
A549 NSCLC = test system: A549 NSCLC
SW-620 colon = test system: SW-620 colon
786-0 renal = test system: 786-0 renal
SR leukemia = test system: SR leukemia

COc1ccc(C2CC(c3c(O)ccc4ccccc34)=NN2)cc1OC (stereo not given)
TGI (A498 renal): 43.6 µM
TGI (DU-145 prostate): 36.1 µM
TGI (OVCAR-4 ovarian): 20.8 µM
TGI (SNB-75 CNS): 12.2 µM
TGI (K-562 leukemia): > 100 µM
TGI (MOLT-4 leukemia): 5.44 µM
TGI (ACHN renal): 4.82 µM
TGI (TK-10 renal): 14.4 µM
TGI (M14 melanoma): 17.3 µM
TGI (HCT-15 colon): 18.6 µM
TGI (SNB-19 CNS): 6.34 µM
TGI (OVCAR-8 ovarian): 17.8 µM
TGI (SF-539 CNS): 18.4 µM
TGI (UACC-62 melanoma): 13.6 µM
TGI (MCF7 breast): 34.5 µM
TGI (OVCAR-3 ovarian): 20.6 µM
TGI (KM12 colon): 11.4 µM
TGI (RPMI-8226 leukemia): 65 µM
TGI (NCI-H23 lung): 13.8 µM
TGI (HT29 colon): 4.98 µM
TGI (OVCAR-5 ovarian): 18.2 µM
TGI (RXF 393 renal): 24.6 µM
TGI (SF-268 CNS): 11.5 µM
TGI (PC-3 prostate): > 100 µM
TGI (MALME-3M melanoma): 16.3 µM
TGI (SK-MEL-2 melanoma): 30.9 µM
TGI (MDA-MB-231 breast): 53.4 µM
TGI (SF-295 CNS): 17.6 µM
TGI (HCC-2998 colon): 6.15 µM
TGI (CAKI-1 renal): 58.4 µM
TGI (MDA-MB-435): 11.6 µM
TGI (EKVX NSCLC): 22.1 µM
TGI (HS 578T breast): 7.43 µM
TGI (SN12C renal): 32.2 µM
TGI (CCRF-CEM leukemia): > 100 µM
TGI (T-47D breast): 58.2 µM
TGI (UACC-257 melanoma): 20.4 µM
TGI (SK-OV-3 ovarian): 28.8 µM
TGI (BT-549 breast): 16.1 µM
TGI (NCI-H460 lung): 8.24 µM
TGI (U251 CNS): 11 µM
TGI (IGROV1 ovarian): 20.1 µM
TGI (HL-60(TB) leukemia): 63.5 µM
TGI (HOP-92 NSCLC): 24.7 µM
TGI (COLO 205 colon): 46.5 µM
TGI (NCI-H522 lung): 8.58 µM
TGI (MDA-N): 22.8 µM
TGI (SK-MEL-5 melanoma): 12.6 µM
TGI (HOP-62 NSCLC): 17.5 µM
TGI (NCI/ADR-RES ovarian): 9.77 µM
TGI (UO-31 renal): 5.7 µM
TGI (NCI-H226 lung): 14.6 µM

Cc1ccc(OP(=O)(Oc2ccc(C)cc2)N2C=Cc3ccccc3C2C#N)cc1 (stereo not given)
TGI (A498 renal): > 100 µM
TGI (DU-145 prostate): > 100 µM
TGI (OVCAR-4 ovarian): > 100 µM
TGI (SNB-75 CNS): > 100 µM
TGI (K-562 leukemia): > 100 µM
TGI (SK-MEL-28 melanoma): > 100 µM
TGI (MOLT-4 leukemia): > 100 µM
TGI (ACHN renal): > 100 µM
TGI (TK-10 renal): > 100 µM
TGI (HCT-116 colon): > 100 µM
TGI (LOX IMVI melanoma): > 100 µM
TGI (M14 melanoma): > 100 µM
TGI (HCT-15 colon): > 100 µM
TGI (SNB-19 CNS): > 100 µM
TGI (OVCAR-8 ovarian): > 100 µM
TGI (SF-539 CNS): > 100 µM
TGI (UACC-62 melanoma): > 100 µM
TGI (MCF7 breast): > 100 µM
TGI (OVCAR-3 ovarian): > 100 µM
TGI (KM12 colon): > 100 µM
TGI (RPMI-8226 leukemia): > 100 µM
TGI (NCI-H23 lung): > 100 µM
TGI (A549 NSCLC): > 100 µM
TGI (HT29 colon): > 100 µM
TGI (OVCAR-5 ovarian): > 100 µM
TGI (RXF 393 renal): > 100 µM
TGI (SF-268 CNS): > 100 µM
TGI (PC-3 prostate): > 100 µM
TGI (MALME-3M melanoma): > 100 µM
TGI (SK-MEL-2 melanoma): > 100 µM
TGI (MDA-MB-231 breast): > 100 µM
TGI (SF-295 CNS): > 100 µM
TGI (CAKI-1 renal): > 100 µM
TGI (MDA-MB-435): > 100 µM
TGI (EKVX NSCLC): > 100 µM
TGI (HS 578T breast): > 100 µM
TGI (SN12C renal): > 100 µM
TGI (CCRF-CEM leukemia): > 100 µM
TGI (T-47D breast): > 100 µM
TGI (UACC-257 melanoma): > 100 µM
TGI (SK-OV-3 ovarian): > 100 µM
TGI (SW-620 colon): > 100 µM
TGI (BT-549 breast): > 100 µM
TGI (NCI-H460 lung): > 100 µM
TGI (U251 CNS): > 100 µM
TGI (IGROV1 ovarian): > 100 µM
TGI (HL-60(TB) leukemia): > 100 µM
TGI (HOP-92 NSCLC): > 100 µM
TGI (COLO 205 colon): > 100 µM
TGI (NCI-H522 lung): > 100 µM
TGI (MDA-N): > 100 µM
TGI (SK-MEL-5 melanoma): > 100 µM
TGI (HOP-62 NSCLC): > 100 µM
TGI (NCI/ADR-RES ovarian): > 100 µM
TGI (UO-31 renal): > 100 µM
TGI (786-0 renal): > 100 µM
TGI (SR leukemia): > 100 µM
TGI (NCI-H226 lung): > 100 µM
